Assay results reported in PMC11078746 (Nature, 2024).
Values joined by “and” are separate entries in the source; they are usually repeats but may differ in a detail not shown here. Equal values may be shown once.

How the values were obtained:
SW48 = experiment: cells; details: Homo sapiens, SW48, read-out: CFA 10-14 day assay GI50
1119-HX xenograft = experiment: MSI xenograft model efficacy; format: in vivo, mouse; details: colorectal carcinoma, 60 or 120 mg/kg
Experimental: (§1) All animal studies were conducted in accordance with ethics and procedures covered by permit BS-2275 and BS-1975 issued by the Kantonales Veterinäramt Basel-Stadt and in strict adherence to guidelines of the Eidgenössisches Tierschutzgesetz and the Eidgenössische Tierschutzverordnung, Switzerland. All animal studies were approved by the internal ethics committee. All animals had access to food and water ad libitum and were identified with transponders. They were housed in a specific-pathogen-free facility in IVC racks under a 12 h–12 h light–dark cycle. To establish cell-line-derived xenograft models, 6–7-week-old female athymic nude (Crl:NU(NCr)-Foxn1^nu) or SCID-BEIGE (CB17.Cg-PrkdcscidLystbg-J/Crl) mice from Charles River were engrafted subcutaneously with 5 million tumour cells in HBSS (H6648, Sigma-Aldrich). For SNU-407, Lovo, IM95, RL95.2, Ishikawa and IGROV-1, the cells were concentrated in 50% Matrigel (354234, Corning). Patient-derived xenografts were induced and expanded by transplantation as previously described. […] For the efficacy experiment, mice were randomized into groups (n = 5–6) for a mean tumour size of 100–150 mm^3. […] Blood samples were collected on day 7 and 91. […] Tumour responses are reported with the measures of tumour volumes from the treatment start. […] Animals were randomized (n = 3) and tumour samples were collected at 0, 1, 4, 8 and 24 h on the first day and then collected 4 h after the last treatment on day 3, 8, 10, 14 (including a 24 h timepoint), 17 and 21. Tumours were excised, weighed, either frozen in liquid nitrogen and cryogenic dry pulverized with the CryoPrep system (model CP-02, Covaris) or processed to FFPE after fixation. […] On day 12, blood samples were collected for PK analysis. On the last day (3 h after the last treatment), tumours were excised, weighed, frozen in liquid nitrogen and cryogenic dry pulverized for PD analysis.

RKO xenograft = experiment: MSI xenograft model efficacy; format: in vivo, mouse; details: colorectal carcinoma, 60 or 120 mg/kg
Experimental: as §1

TOV21G xenograft = experiment: MSI xenograft model efficacy; format: in vivo, mouse; details: Ovarian carcinoma, 60 or 120 mg/kg
Experimental: as §1

JHUEM2 xenograft = experiment: MSI xenograft model efficacy; format: in vivo, mouse; details: JHUEM2, Endometrial carcinoma; 60 or 120 mg/kg
Experimental: as §1

LS411N xenograft = experiment: MSI xenograft model efficacy; format: in vivo, mouse; details: colorectal carcinoma, 60 or 120 mg/kg
Experimental: as §1

5441-HX xenograft = experiment: MSI xenograft model efficacy; format: in vivo, mouse; details: colorectal carcinoma, 60 or 120 mg/kg
Experimental: as §1

5148-HX xenograft = experiment: MSI xenograft model efficacy; format: in vivo, mouse; details: Gastric carcinoma, 60 or 120 mg/kg
Experimental: as §1

IM95 xenograft = experiment: MSI xenograft model efficacy; format: in vivo, mouse; details: IM95, Gastric carcinoma; 60 or 120 mg/kg
Experimental: as §1

2861-HX xenograft = experiment: MSI xenograft model efficacy; format: in vivo, mouse; details: colorectal carcinoma, 60 or 120 mg/kg
Experimental: as §1

IGROV1 xenograft = experiment: MSI xenograft model efficacy; format: in vivo, mouse; details: IGROV1, Ovarian carcinoma; 60 or 120 mg/kg
Experimental: as §1

[1] = tested on: HCT116 TP53 null xenograft; experiment: MSI xenograft model efficacy; format: in vivo, mouse; details: for Mean TVol / Tumour volume (TVol): HCT116 p53 null, 60 mpk; for Tumour volume (TVol): single mouse, 60 mg/kg
Experimental: as §1

HEC6 xenograft = experiment: MSI xenograft model efficacy; format: in vivo, mouse; details: HEC6, Endometrial carcinoma; 60 or 120 mg/kg
Experimental: as §1

Ishikawa xenograft = experiment: MSI xenograft model efficacy; format: in vivo, mouse; details: Endometrial carcinoma, 60 or 120 mg/kg
Experimental: as §1

3205-HX xenograft = experiment: MSI xenograft model efficacy; format: in vivo, mouse; details: colorectal carcinoma, 60 or 120 mg/kg
Experimental: as §1

OVK18 xenograft = experiment: MSI xenograft model efficacy; format: in vivo, mouse; details: OVK18, Ovarian carcinoma; 60 or 120 mg/kg
Experimental: as §1

LoVo xenograft = experiment: MSI xenograft model efficacy; format: in vivo, mouse; details: colorectal carcinoma, 60 or 120 mg/kg
Experimental: as §1

23132/87 xenograft = experiment: MSI xenograft model efficacy; format: in vivo, mouse; details: 23132/87, Gastric carcinoma; 60 or 120 mg/kg
Experimental: as §1

SNU407 xenograft = experiment: MSI xenograft model efficacy; format: in vivo, mouse; details: SNU407, colorectal carcinoma; 60 or 120 mg/kg
Experimental: as §1

HEC1B = experiment: CFA 10-14 day clonogenic assay; format: cell-based; details: Homo sapiens, HEC-1B
[2] = tested on: CYP (all isoforms tested); experiment: CYP inhibition; format: in vitro ADME
DLD-1 (HCT15) = experiment: CFA 10-14 day clonogenic assay; format: cell-based; details: Homo sapiens
LOVO = experiment: CFA 10-14 day clonogenic assay; format: cell-based; details: Homo sapiens
Ishikawa = experiment: CFA 10-14 day clonogenic assay; format: cell-based; details: Homo sapiens

## CCc1c(N2CCN(C(=O)c3ncnc(C)c3O)CC2)c(=O)n2nc(C3=CCOCC3)nc2n1CC(=O)Nc1ccc(C(F)(F)F)cc1Cl [HRO761]
SW48
  GI50: 31 nM
Ames
  Ames: Negative
1119-HX xenograft
  Best average response: -14
RKO xenograft
  Best average response: 300
TOV21G xenograft
  Best average response: 190
JHUEM2 xenograft
  Best average response: 400
LS411N xenograft
  Best average response: -100
5441-HX xenograft
  Best average response: 7
5148-HX xenograft
  Best average response: -36
IM95 xenograft
  Best average response: -90
2861-HX xenograft
  Best average response: -70
IGROV1 xenograft
  Best average response: -38
[1]; HCT116 P53 null, colorectal carcinoma, 60 or 120 mg/kg
  Best average response: -100
[1]; day 0
  Mean TVol: 151.89 mm3
  Tumour volume (TVol): 114.28 mm3 and 172.75 mm3 and 98.96 mm3 and 162.60 mm3 and 112.69 mm3 and 250.04 mm3
[1]; day 3
  Mean TVol: 243.48 mm3
  Tumour volume (TVol): 162.58 mm3 and 332.14 mm3 and 148.24 mm3 and 251.18 mm3 and 212.27 mm3 and 354.49 mm3
[1]; day 7
  Mean TVol: 201.27 mm3
  Tumour volume (TVol): 115.63 mm3 and 278.64 mm3 and 112.69 mm3 and 190.13 mm3
[1]; day 10
  Mean TVol: 167.32 mm3
[1]; day 14
  Mean TVol: 78.55 mm3
  Tumour volume (TVol): 57.94 mm3 and 66.94 mm3 and 44.25 mm3 and 61.17 mm3 and 71.26 mm3 and 169.76 mm3
[1]; day 17
  Mean TVol: 56.92 mm3
  Tumour volume (TVol): 38.70 mm3 and 22.79 mm3 and 27.88 mm3 and 45.55 mm3 and 49.32 mm3 and 157.29 mm3
[1]; day 21
  Mean TVol: 29.14 mm3
  Tumour volume (TVol): 20.42 mm3 and 11.20 mm3 and 10.29 mm3 and 21.47 mm3 and 18.24 mm3 and 93.23 mm3
[1]; day 24
  Mean TVol: 15.47 mm3
  Tumour volume (TVol): 13.85 mm3 and 5.24 mm3 and 5.28 mm3 and 4.25 mm3 and 8.53 mm3 and 55.64 mm3
[1]; day 29
  Mean TVol: 6.87 mm3
  Tumour volume (TVol): 2.43 mm3 and 4.29 mm3 and 1.21 mm3 and 1.27 mm3 and 2.76 mm3 and 29.26 mm3
[1]; day 31
  Mean TVol: 4.02 mm3
  Tumour volume (TVol): 2.71 mm3 and 2.05 mm3 and 0.39 mm3 and 0.99 mm3 and 0.92 mm3 and 17.07 mm3
[1]; day 35
  Mean TVol: 3.16 mm3
  Tumour volume (TVol): 1.81 mm3 and 0.00 mm3 (2×) and 0.17 mm3 and 0.75 mm3 and 16.24 mm3
[1]; day 38
  Mean TVol: 4.17 mm3
  Tumour volume (TVol): 0.58 mm3 and 0.00 mm3 (3×) and 1.01 mm3 and 23.40 mm3
[1]; day 42
  Mean TVol: 4.73 mm3
  Tumour volume (TVol): 0.90 mm3 and 0.00 mm3 (4×) and 27.46 mm3
[1]; day 45
  Mean TVol: 6.85 mm3
  Tumour volume (TVol): 1.68 mm3 and 0.00 mm3 (4×) and 39.40 mm3
[1]; day 49
  Mean TVol: 7.67 mm3
  Tumour volume (TVol): 0.00 mm3 (5×) and 46.01 mm3
[1]; day 53
  Mean TVol: 9.89 mm3
  Tumour volume (TVol): 0.00 mm3 (5×) and 59.36 mm3
[1]; day 56
  Mean TVol: 14.65 mm3
  Tumour volume (TVol): 0.00 mm3 (5×) and 87.90 mm3
[1]; day 60
  Mean TVol: 17.60 mm3
  Tumour volume (TVol): 0.63 mm3 and 0.00 mm3 (4×) and 104.97 mm3
HEC6 xenograft
  Best average response: -75
Ishikawa xenograft
  Best average response: -70
3205-HX xenograft
  Best average response: 400
OVK18 xenograft
  Best average response: 500
LoVo xenograft
  Best average response: -20
23132/87 xenograft
  Best average response: 200
SNU407 xenograft
  Best average response: -40
HEC1B
  GI50: ≥ 10000 nM
[2]
  IC50: > 25000 nM
DLD-1 (HCT15)
  GI50: ≥ 10000 nM
LOVO
  GI50: 73 nM
Ishikawa
  GI50: 51 nM
